In US9029396B2, “Substituted indole derivatives” (Novartis AG, priority 2011, dated 2015):
≈ marks a conversion by molar mass, not a printed value.

How the values were obtained:
PKC-theta = molecular target: T1, PKC-theta (Homo sapiens, UniProt Q04759); assay: Protein kinase C theta assay (Caliper mobility shift); assay type: biochemical; settings: full length human recombinant enzyme, 70 μM ATP; read-out: PKCθ (IC50 in nM)
T1 construct: Both enzymes were full length human recombinant protein expressed in insect cells; purchased Invitrogen AG, Basel, Switzerland; host or cells: insect cells
T1 sequence (Q04759 whole entry): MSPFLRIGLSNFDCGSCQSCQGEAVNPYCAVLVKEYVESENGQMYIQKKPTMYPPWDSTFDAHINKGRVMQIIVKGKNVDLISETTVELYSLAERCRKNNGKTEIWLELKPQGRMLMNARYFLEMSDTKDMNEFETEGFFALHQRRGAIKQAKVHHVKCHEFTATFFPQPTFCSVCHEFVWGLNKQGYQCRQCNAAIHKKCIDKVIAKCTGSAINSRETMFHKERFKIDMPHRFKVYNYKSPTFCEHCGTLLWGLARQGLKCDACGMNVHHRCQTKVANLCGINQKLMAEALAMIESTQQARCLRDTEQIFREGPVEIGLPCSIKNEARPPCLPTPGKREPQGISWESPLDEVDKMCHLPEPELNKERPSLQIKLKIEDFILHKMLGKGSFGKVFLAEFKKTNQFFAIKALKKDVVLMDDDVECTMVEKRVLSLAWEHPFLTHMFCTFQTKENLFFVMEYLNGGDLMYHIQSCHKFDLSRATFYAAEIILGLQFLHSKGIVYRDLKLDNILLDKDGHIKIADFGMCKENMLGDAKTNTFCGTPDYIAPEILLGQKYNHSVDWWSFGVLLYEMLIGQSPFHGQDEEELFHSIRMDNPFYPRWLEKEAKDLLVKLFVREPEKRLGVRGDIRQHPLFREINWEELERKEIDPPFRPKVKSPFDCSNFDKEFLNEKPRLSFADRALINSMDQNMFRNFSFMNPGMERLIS
Method: (§1) The compounds of the invention were tested for their activity on different PKC isotypes according to the following method. All assays were performed in 384 well microtiter plates. Each assay plate contained 8-point serial dilutions for 40 test compounds, as well as two 16-point serial dilutions of staurosporine as reference compound, plus 16 high- and 16 low controls. Liquid handling and incubation steps were done on a automated workstation equipped with a Innovadyne Nanodrop Express.
(§2) The assay plates were prepared by addition of 50 nL per well of compound solution in 90% DMSO. The kinase reactions were started by stepwise addition of 4.5 μl per well of a 2× peptide/ATP-solution and 4.5 μl per well of a 2× enzyme solution. The final concentration of reagents during kinase reaction were: 50 mM HEPES, pH 7.5, 1 mM DTT, 0.02% Tween20, 0.02% BSA, 0.6% DMSO, 10 mM beta-glycerophosphate, and 10 μM sodium orthovanadate. The peptide substrate used in the PKC-alpha and PKC-theta assays was Dy495-X5-ME-Mpr-RFARKGSLRQKNV-COOH. […]
(§3) Plates with terminated kinase reactions were transferred to the Caliper LC3000 workstations for reading. Phosphorylated and unphosphorylated peptides were separated using the Caliper microfluidic mobility shift technology and Kinase activities were calculated from the amounts of formed phospho-peptide.

PKC-alpha = molecular target: T2, PKC-alpha (Homo sapiens, UniProt P17252); assay: Protein kinase C alpha assay (Caliper mobility shift); assay type: biochemical; settings: full length human recombinant enzyme, 17 μM ATP; read-out: PKCα (IC50 in nM)
T2 construct: Both enzymes were full length human recombinant protein expressed in insect cells; purchased Invitrogen AG, Basel, Switzerland; host or cells: insect cells
Method: as §1, §2, §3

[1] = Dog pharmacokinetics after oral administration of compound of example No. 3 (mono acetate salt); assay type: in vivo, Beagle dogs; settings: blood
Method: Compound of Example No. 3 was administered orally as the mono acetate salt in a hard gelatine capsule to 6 fasted male Beagle dogs. A nominal dose of 100 mg/dog was given, resulting in dose of 8.9-11.3 mg/kg (weight of the dogs ranging from 8.9-11.3 kg). Blood was taken by venipuncture, and sampling was performed up to 32 h. Bioanalytic determination was performed for 3 and is tabulated below:
Key pharmacokinetic parameters (mean values or range) for compound No. 3 after oral dosing as described above.

[2] = Dog pharmacokinetics after oral administration of compound of example No. 1; assay type: in vivo, Beagle dogs; settings: dog, blood
Method: A single dose of the compound of example 1 (3.0 mg/kg) was administered p.o. to 3 male Beagle dogs. Compound 1 was dosed as an aqueous suspension of the crystalline monohydrate form in Methylcellulose (0.5%): Tween 80 (1%) (90:10). Blood was taken in regular intervals by venipuncture, and the samples were analyzed for a period of up to 24 hours. The compounds of the examples 1, 2, and 3 were quantitatively assessed over time, and the results are tabulated below:
Key pharmacokinetic parameters (mean values±standard deviations (n=3) for 1, 2 and 3 after oral dosing of example No. 1.

[3] = Solubility in simulated gastric and intestinal fluids; assay type: physicochemical; settings: Free Form
From the text: Solubility of compound Example No. 1 in simulated gastric and in simulated intestinal fluids at room temperature
Solubility of compound Example No. 3 (free form/acetate salt form) in simulated gastric fluids: […]

[4] = Stability in gastric and intestinal simulated fluids at 37° C.; assay type: physicochemical
Method: Stability Assessments Stability of Cpd. Example No. 1 in Gastric and Intestinal Simulated Fluids at 37° C.:
Stability of compound Example No. 3
(Free form/acetate salt form) in gastric and intestinal simulated fluids at 37° C.: […]

IC50 (PKC-theta): 0.2 nM
IC50 (PKC-alpha): 0.4 nM
concentration at 0.5 h ([1]; po, fasted male Beagle dogs, example No. 3 mono acetate salt p.o. 100 mg/dog, 0.5 h): 936 nM
concentration at 1 h ([1]; po, fasted male Beagle dogs, example No. 3 mono acetate salt p.o. 100 mg/dog, 1 h): 2160 nM
concentration at 2 h ([1]; po, fasted male Beagle dogs, example No. 3 mono acetate salt p.o. 100 mg/dog, 2 h): 2550 nM
concentration at 3 h ([1]; po, fasted male Beagle dogs, example No. 3 mono acetate salt p.o. 100 mg/dog, 3 h): 2000 nM
concentration at 4 h ([1]; po, fasted male Beagle dogs, example No. 3 mono acetate salt p.o. 100 mg/dog, 4 h): 1900 nM
concentration at 6 h ([1]; po, fasted male Beagle dogs, example No. 3 mono acetate salt p.o. 100 mg/dog, 6 h): 1490 nM
concentration at 8 h ([1]; po, fasted male Beagle dogs, example No. 3 mono acetate salt p.o. 100 mg/dog, 8 h): 1240 nM
concentration at 24 h ([1]; po, fasted male Beagle dogs, example No. 3 mono acetate salt p.o. 100 mg/dog, 24 h): 276 nM
concentration at 32 h ([1]; po, fasted male Beagle dogs, example No. 3 mono acetate salt p.o. 100 mg/dog, 32 h): 116 nM
concentration at 0.25 h ([1]; po, fasted male Beagle dogs, example No. 3 mono acetate salt, capsule p.o. 100 mg/dog, 0.25 h): 177 nM
Tmax ([1]; male, Beagle, dog, 100 mg, range, after oral dosing of example No. 3 mono acetate salt to dogs): 30 to 120 min
concentration at 0.083 h ([2]; po, male Beagle dogs, example 1 3.0 mg/kg p.o. (crystalline monohydrate suspension), 0.083 h): 15 nM
concentration at 0.25 h ([2]; po, male Beagle dogs, example 1 3.0 mg/kg p.o., 0.25 h): 167 nM
concentration at 0.5 h ([2]; po, male Beagle dogs, example 1 3.0 mg/kg p.o., 0.5 h): 757 nM
concentration at 0.75 h ([2]; po, male Beagle dogs, example 1 3.0 mg/kg p.o., 0.75 h): 1200 nM
concentration at 1 h ([2]; po, male Beagle dogs, example 1 3.0 mg/kg p.o., 1 h): 1310 nM
concentration at 2 h ([2]; po, male Beagle dogs, example 1 3.0 mg/kg p.o., 2 h): 1120 nM
concentration at 3 h ([2]; po, male Beagle dogs, example 1 3.0 mg/kg p.o., 3 h): 959 nM
concentration at 4 h ([2]; po, male Beagle dogs, example 1 3.0 mg/kg p.o., 4 h): 762 nM
concentration at 7 h ([2]; po, male Beagle dogs, example 1 3.0 mg/kg p.o., 7 h): 403 nM
concentration at 24 h ([2]; po, male Beagle dogs, example 1 3.0 mg/kg p.o., 24 h): 67.9 nM
Tmax ([2]; male, Beagle, 3 mg/kg, mean ± SD (n=3), after oral dosing of example No. 1 to dogs): 54 ± 6 min
solubility ([3]; FaSSIF pH 6.5): 30 µg/mL (≈ 64.7 µM)
solubility ([3]; FeSSIF pH 5.8): 280 µg/mL (≈ 604 µM)
solubility ([3]; simulated gastric fluid, SGF pH 2): 120 µg/mL (≈ 259 µM)
Amount in Area % of compound example No. 3 ([4]; Acetate Salt, FaSSIF pH 6.5, 37° C., 0 hours): 100 Area %
Amount in Area % of compound example No. 3 ([4]; Acetate Salt, FaSSIF pH 6.5, 37° C., 1 hours): 98.6 Area %
Amount in Area % of compound example No. 3 ([4]; Acetate Salt, FaSSIF pH 6.5, 37° C., 2.5 hours): 98.7 Area %
Amount in Area % of compound example No. 3 ([4]; Acetate Salt, FaSSIF pH 6.5, 37° C., 4 hours): 95.1 Area %
Amount in Area % of compound example No. 3 ([4]; Acetate Salt, FaSSIF pH 6.5, 37° C., 7 hours): 88.5 Area %
Amount in Area % of compound example No. 3 ([4]; Acetate Salt, FeSSIF pH 5.8, 37° C., 0 hours): 100 Area %
Amount in Area % of compound example No. 3 ([4]; Acetate Salt, FeSSIF pH 5.8, 37° C., 1 hours): 99.1 Area %
Amount in Area % of compound example No. 3 ([4]; Acetate Salt, FeSSIF pH 5.8, 37° C., 2.5 hours): 98.9 Area %
Amount in Area % of compound example No. 3 ([4]; Acetate Salt, FeSSIF pH 5.8, 37° C., 4 hours): 98 Area %
Amount in Area % of compound example No. 3 ([4]; Acetate Salt, FeSSIF pH 5.8, 37° C., 7 hours): 97.5 Area %
Amount in Area % of compound example No. 3 ([4]; Acetate Salt, SGF pH 2, 37° C., 0 hours): 100 Area %
Amount in Area % of compound example No. 3 ([4]; Acetate Salt, SGF pH 2, 37° C., 1 hours): 96.4 Area %
Amount in Area % of compound example No. 3 ([4]; Acetate Salt, SGF pH 2, 37° C., 2.5 hours): 93.2 Area %
Amount in Area % of compound example No. 3 ([4]; Acetate Salt, SGF pH 2, 37° C., 4 hours): 92.4 Area %
Amount in Area % of compound example No. 3 ([4]; Acetate Salt, SGF pH 2, 37° C., 7 hours): 90.0 Area %
Amount in Area % of compound example No. 3 ([4]; Free Form, FaSSIF pH 6.5, 37° C., 0 hours): 100 Area %
Amount in Area % of compound example No. 3 ([4]; Free Form, FaSSIF pH 6.5, 37° C., 1 hours): 100 Area %
Amount in Area % of compound example No. 3 ([4]; Free Form, FaSSIF pH 6.5, 37° C., 2.5 hours): 100 Area %
Amount in Area % of compound example No. 3 ([4]; Free Form, FaSSIF pH 6.5, 37° C., 4 hours): 90.7 Area %
Amount in Area % of compound example No. 3 ([4]; Free Form, FaSSIF pH 6.5, 37° C., 7 hours): 82.5 Area %
Amount in Area % of compound example No. 3 ([4]; Free Form, FeSSIF pH 5.8, 37° C., 0 hours): 100 Area %
Amount in Area % of compound example No. 3 ([4]; Free Form, FeSSIF pH 5.8, 37° C., 1 hours): 100 Area %
Amount in Area % of compound example No. 3 ([4]; Free Form, FeSSIF pH 5.8, 37° C., 2.5 hours): 100 Area %
Amount in Area % of compound example No. 3 ([4]; Free Form, FeSSIF pH 5.8, 37° C., 4 hours): 99.2 Area %
Amount in Area % of compound example No. 3 ([4]; Free Form, FeSSIF pH 5.8, 37° C., 7 hours): 98.7 Area %
Amount in Area % of compound example No. 3 ([4]; Free Form, SGF pH 2, 37° C., 0 hours): 98.8 Area %
Amount in Area % of compound example No. 3 ([4]; Free Form, SGF pH 2, 37° C., 1 hours): 98.6 Area %
Amount in Area % of compound example No. 3 ([4]; Free Form, SGF pH 2, 37° C., 2.5 hours): 98.1 Area %
Amount in Area % of compound example No. 3 ([4]; Free Form, SGF pH 2, 37° C., 4 hours): 97.9 Area %
Amount in Area % of compound example No. 3 ([4]; Free Form, SGF pH 2, 37° C., 7 hours): 97.9 Area %
SMILES: Cc1cccc2c(C3=C(c4nc(N5CCNC6(CC6)C5)cc5ccccc45)C(=O)NC3=O)c[nH]c12 [Example 3, 3-[3-(4,7-diaza-spiro[2.5]oct-7-yl)-isoquinolin-1-yl]-4-(7-methyl-1H-indol-3-yl)-pyrrole-2,5-dione]
